IC50 data for 20 molecules are collected here from patent publication US11254668B2, “Pyrazolo[1,5-A]pyrazin-4-yl and related derivatives” (Pfizer Inc., priority 2017, dated 2022).

Common to all, as to type: biochemical
In assay [1] the target is JAK1 (Homo sapiens (Human), UniProt P23458). The assay can be described thus: JAK Caliper Enzyme Assay at 1 mM ATP, JAK1. Put shortly:
(§1)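 IC50 (nM) derived from percent conversion of fluorescently labelled peptide, measured by Caliper LabChip mobility-shift separation after EDTA stop. Each JAK family kinase domain (human, recombinant) run at 1 mM ATP and room temperature, conditions set to 20-30% product; DMSO wells define uninhibited baseline.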

For assay [2], the target named is JAK2 (Homo sapiens (Human), UniProt O60674). The assay can be described thus: JAK Caliper Enzyme Assay at 1 mM ATP, JAK2. The procedure, abridged:
(§2)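 Inhibition is measured as reduced phosphorylation of a synthetic peptide by the recombinant human kinase domain at 1 mM ATP. Conditions give 20–30% conversion at room temperature before EDTA quench, and on-chip separation of labelled substrate and product yields percent conversion for dose–response plotting.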

Assay [3] deals with JAK3 (Homo sapiens (Human), UniProt P52333). The assay can be described thus: JAK Caliper Enzyme Assay at 1 mM ATP, JAK3. Put shortly:
as §1

The target in assay [4] is TYK2 (Homo sapiens (Human), UniProt P29597). The assay can be described thus: JAK Caliper Enzyme Assay at 1 mM ATP, TYK2. Put shortly:
as §2

pIC50: −log10 of the molar value. Where only a bound is given, the exact number is not on record here.

TYK2, sequence (P29597 897-1176): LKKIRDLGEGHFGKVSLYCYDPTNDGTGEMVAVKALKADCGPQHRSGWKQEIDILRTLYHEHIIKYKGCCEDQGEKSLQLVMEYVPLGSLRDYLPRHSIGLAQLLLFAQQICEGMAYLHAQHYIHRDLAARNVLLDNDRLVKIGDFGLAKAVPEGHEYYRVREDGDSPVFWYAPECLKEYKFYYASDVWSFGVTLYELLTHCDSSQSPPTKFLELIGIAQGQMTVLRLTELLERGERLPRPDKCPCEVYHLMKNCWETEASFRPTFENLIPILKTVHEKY
JAK3, sequence (P52333 822-1111): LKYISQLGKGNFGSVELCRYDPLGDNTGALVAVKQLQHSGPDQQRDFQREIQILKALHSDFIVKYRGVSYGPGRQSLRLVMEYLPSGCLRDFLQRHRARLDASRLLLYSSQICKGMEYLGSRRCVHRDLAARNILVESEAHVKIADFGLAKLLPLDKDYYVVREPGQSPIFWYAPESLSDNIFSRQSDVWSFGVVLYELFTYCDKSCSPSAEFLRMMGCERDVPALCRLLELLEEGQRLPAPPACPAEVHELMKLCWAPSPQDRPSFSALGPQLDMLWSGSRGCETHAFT
JAK2, sequence (O60674 849-1124): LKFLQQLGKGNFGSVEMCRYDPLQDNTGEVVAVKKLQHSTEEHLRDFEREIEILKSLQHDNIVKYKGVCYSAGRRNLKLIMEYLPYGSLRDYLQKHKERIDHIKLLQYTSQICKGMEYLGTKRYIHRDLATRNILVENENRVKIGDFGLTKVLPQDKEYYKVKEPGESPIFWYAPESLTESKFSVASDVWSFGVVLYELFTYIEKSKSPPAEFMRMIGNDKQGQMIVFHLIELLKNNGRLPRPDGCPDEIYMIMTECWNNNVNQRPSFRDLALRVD
JAK1, sequence (P23458 875-1153): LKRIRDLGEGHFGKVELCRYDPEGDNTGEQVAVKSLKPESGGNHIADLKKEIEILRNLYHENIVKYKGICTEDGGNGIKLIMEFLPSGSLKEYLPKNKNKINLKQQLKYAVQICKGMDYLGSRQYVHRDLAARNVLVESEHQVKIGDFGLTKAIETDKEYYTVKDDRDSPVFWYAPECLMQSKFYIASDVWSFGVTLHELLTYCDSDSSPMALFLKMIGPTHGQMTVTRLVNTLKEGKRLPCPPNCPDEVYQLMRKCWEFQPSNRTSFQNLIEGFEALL

By pIC50 is commonly meant the negative decadic logarithm of the IC50, by convention in mol/L. For `Cc1nc(-c2cc3ncccc3c(-c3ccn(C4(CC#N)CN(CC(F)(F)F)C4)n3)n2)cn1C` [Example 151, [3-{3-[7-(1,2-dimethyl-1H-imidazol-4-yl)-1,6-naphthyridin-5-yl]-1H-pyrazol-1-yl}-1-(2,2,2-trifluoroethyl)azetidin-3-yl]acetonitrile], the negative-log IC50 (pIC50) was below 5.00 in assay [1], 5.78 in assay [2], below 5.00 in assay [3] and 6.51 in assay [4].
On to `Cc1ncc(-c2cc3ncccc3c(-c3ccn(C4(CC#N)CN(CC(F)(F)F)C4)n3)n2)n1C` [Example 152, [3-{3-[7-(1,2-dimethyl-1H-imidazol-5-yl)-1,6-naphthyridin-5-yl]-1H-pyrazol-1-yl}-1-(2,2,2-trifluoroethyl)azetidin-3-yl]acetonitrile], for which the pIC50 in assay [1] was below 5.00; in assay [2] it was below 5.00; in assay [3], below 5.00; in assay [4], 5.38.
Regarding `N#CCC1(n2ccc(-c3nc(-c4cn[nH]n4)cc4ncccc34)n2)CN(CC(F)(F)F)C1` [Example 153, [3-{3-[7-(2H-1,2,3-triazol-4-yl)-1,6-naphthyridin-5-yl]-1H-pyrazol-1-yl}-1-(2,2,2-trifluoroethyl)azetidin-3-yl]acetonitrile], the negative-log IC50 (pIC50) is 5.23 in assay [1], 5.48 in assay [2], below 5.00 in assay [3] and 6.62 in assay [4].
For `Cn1ncc(-c2cc3ncccc3c(-c3ccn(C4(CC#N)CN(CC(F)(F)F)C4)n3)n2)n1` [Example 154, [3-{3-[7-(2-methyl-2H-1,2,3-triazol-4-yl)-1,6-naphthyridin-5-yl]-1H-pyrazol-1-yl}-1-(2,2,2-trifluoroethyl)azetidin-3-yl]acetonitrile], in that order: below 5.00, 5.50, below 5.00 and 6.54.
For `N#CCC1(n2ccc(-c3nc(-c4nc(CO)cs4)cc4ncccc34)n2)CC(C#N)C1` (stereo not drawn) [Example 156, cis-3-(cyanomethyl)-3-(3-{7-[4-(hydroxymethyl)-1,3-thiazol-2-yl]-1,6-naphthyridin-5-yl}-1H-pyrazol-1-yl)cyclobutanecarbonitrile], in that order: 5.69, 6.09, below 5.00 and 6.92.
For `CS(=O)(=O)N1CC(CC#N)(n2ccc(-c3nc(-c4c[nH]c5nccc-5c4)cc4ncccc34)n2)C1` [Example 157, [1-(methylsulfonyl)-3-{3-[7-(7H-pyrrolo[2,3-b]pyridin-5-yl)-1,6-naphthyridin-5-yl]-1H-pyrazol-1-yl}azetidin-3-yl]acetonitrile], in that order: 5.77, 6.07, below 5.00 and 6.83.
For the molecule `N#CCC1(n2ccc(-c3nc(-c4cnc5cc[nH]c5c4)cc4ncccc34)n2)CN(CC(F)(F)F)C1` [Example 158, [3-{3-[7-(1H-pyrrolo[3,2-b]pyridin-6-yl)-1,6-naphthyridin-5-yl]-1H-pyrazol-1-yl}-1-(2,2,2-trifluoroethyl)azetidin-3-yl]acetonitrile], the negative logarithm of the IC50 (pIC50) in assay [1] is 5.70; in assay [2], 6.18; in assay [3], below 5.00; in assay [4] it was 7.48.
For `CS(=O)(=O)N1CC(CC#N)(n2ccc(-c3nc(-c4c[nH]c5ncccc45)cc4ncccc34)n2)C1` [Example 159, [1-(methylsulfonyl)-3-{3-[7-(1H-pyrrolo[2,3-b]pyridin-3-yl)-1,6-naphthyridin-5-yl]-1H-pyrazol-1-yl}azetidin-3-yl]acetonitrile], in that order: 6.92, 6.94, below 5.00 and 8.15.
The like results for `CS(=O)(=O)N1CC(CC#N)(n2ccc(-c3nc(-c4c[nH]c5cccnc45)cc4ncccc34)n2)C1` [Example 160, [1-(methylsulfonyl)-3-{3-[7-(1H-pyrrolo[3,2-b]pyridin-3-yl)-1,6-naphthyridin-5-yl]-1H-pyrazol-1-yl}azetidin-3-yl]acetonitrile] were, in that order, below 5.00, 5.25, below 5.00 and 6.10.
On to `CS(=O)(=O)N1CC(CC#N)(n2ccc(-c3nc(-c4cnn5ccccc45)cc4ncccc34)n2)C1` [Example 161, [1-(methylsulfonyl)-3-{3-[7-(pyrazolo[1,5-a]pyridin-3-yl)-1,6-naphthyridin-5-yl]-1H-pyrazol-1-yl}azetidin-3-yl]acetonitrile], for which the negative logarithm of the IC50 (pIC50) in assay [1] is 6.39; in assay [2] it was 6.43; in assay [3], below 5.00; in assay [4] it was 7.46.
The like results for `CS(=O)(=O)N1CC(CC#N)(n2ccc(-c3nc(-c4ccc5nccn5c4)cc4ncccc34)n2)C1` [Example 162, [3-{3-[7-(imidazo[1,2-a]pyridin-6-yl)-1,6-naphthyridin-5-yl]-1H-pyrazol-1-yl}-1-(methylsulfonyl)azetidin-3-yl]acetonitrile] were, in that order, 6.10, 6.26, below 5.00 and 7.17.
For `CS(=O)(=O)N1CC(CC#N)(n2ccc(-c3nc(-c4ccn5ccnc5c4)cc4ncccc34)n2)C1` [Example 163, [3-{3-[7-(imidazo[1,2-a]pyridin-7-yl)-1,6-naphthyridin-5-yl]-1H-pyrazol-1-yl}-1-(methylsulfonyl)azetidin-3-yl]acetonitrile], in that order: 5.39, 6.53, below 5.00 and 7.38.
The like results for `Cn1cnc2cc(-c3cc4ncccc4c(-c4ccn(C5(CC#N)CN(S(C)(=O)=O)C5)n4)n3)cnc21` [Example 164, [3-{3-[7-(3-methyl-3H-imidazo[4,5-b]pyridin-6-yl)-1,6-naphthyridin-5-yl]-1H-pyrazol-1-yl}-1-(methylsulfonyl)azetidin-3-yl]acetonitrile] were, in that order, 5.18, 5.33, below 5.00 and 6.63.
Turning to `CS(=O)(=O)N1CC(CC#N)(n2ccc(-c3nc(-c4cnc5nccn5c4)cc4ncccc34)n2)C1` [Example 165, [3-{3-[7-(imidazo[1,2-a]pyrimidin-6-yl)-1,6-naphthyridin-5-yl]-1H-pyrazol-1-yl}-1-(methylsulfonyl)azetidin-3-yl]acetonitrile], the negative-log IC50 (pIC50) in assay [1] was below 5.00; in assay [2], 5.03; in assay [3], below 5.00; in assay [4] it was 5.86.
In the case of `CS(=O)(=O)N1CC(CC#N)(n2ccc(-c3nc(-c4cnc5cn[nH]c5c4)cc4ncccc34)n2)C1` [Example 166, [1-(methylsulfonyl)-3-{3-[7-(1H-pyrazolo[4,3-b]pyridin-6-yl)-1,6-naphthyridin-5-yl]-1H-pyrazol-1-yl}azetidin-3-yl]acetonitrile], the pIC50 in assay [1] was 5.13; in assay [2] it was 6.14; in assay [3] it was below 5.00; in assay [4], 7.36.
For `N#CCC1(n2ccc(-c3nc(-c4ccc5nncn5c4)cc4ncccc34)n2)CN(CC(F)(F)F)C1` [Example 167, [3-{3-[7-([1,2,4]triazolo[4,3-a]pyridin-6-yl)-1,6-naphthyridin-5-yl]-1H-pyrazol-1-yl}-1-(2,2,2-trifluoroethyl)azetidin-3-yl]acetonitrile], in that order: 5.56, 5.89, below 5.00 and 6.89.
The like results for `CS(=O)(=O)N1CC(CC#N)(n2ccc(-c3nc(-c4cnn5cccnc45)cc4ncccc34)n2)C1` [Example 168, [1-(methylsulfonyl)-3-{3-[7-(pyrazolo[1,5-a]pyrimidin-3-yl)-1,6-naphthyridin-5-yl]-1H-pyrazol-1-yl}azetidin-3-yl]acetonitrile] were, in that order, 5.05, 5.18, below 5.00 and 6.23.
For `CS(=O)(=O)N1CC(CC#N)(n2ccc(-c3nc(-c4cnc5[nH]c(=O)[nH]c5c4)cc4ncccc34)n2)C1` [Example 169, [1-(methylsulfonyl)-3-{3-[7-(2-oxo-2,3-dihydro-1H-imidazo[4,5-b]pyridin-6-yl)-1,6-naphthyridin-5-yl]-1H-pyrazol-1-yl}azetidin-3-yl]acetonitrile], in that order: below 5.00, 6.62, below 5.00 and 7.66.
`CS(=O)(=O)N1CC(CC#N)(n2ccc(-c3nc(-c4cnc5c(c4)NCCN5)cc4ncccc34)n2)C1` [Example 170, [1-(methylsulfonyl)-3-{3-[7-(1,2,3,4-tetrahydropyrido[2,3-b]pyrazin-7-yl)-1,6-naphthyridin-5-yl]-1H-pyrazol-1-yl}azetidin-3-yl]acetonitrile]: the negative-log IC50 (pIC50) in assay [1] was 5.84; in assay [2] it was 6.40; in assay [3], below 5.00; in assay [4], 7.25.
For `N#CCC1(n2ccc(-c3nc(-c4ccncc4)cc4ncccc34)n2)CN(CC(F)(F)F)C1` [Example 172, [3-{3-[7-(pyridin-4-yl)-1,6-naphthyridin-5-yl]-1H-pyrazol-1-yl}-1-(2,2,2-trifluoroethyl)azetidin-3-yl]acetonitrile], in that order: 6.22, 6.41, below 5.00 and 7.57.
